Measurements taken from patent US9067920B2, “Compounds useful for inhibiting Chk1” (Eli Lilly and Company, priority 2010, dated 2015).
Counter-ions that a name gives are not always drawn.

Key:
[1] = molecular target: T1, Chk1 (Homo sapiens, UniProt O14757); test: Chk1 biochemical assay (CHK1/substrate peptide filter binding); conditions: 60 μM ATP, 0.75 nM Chk1 enzyme
T1 sequence (O14757 1-476): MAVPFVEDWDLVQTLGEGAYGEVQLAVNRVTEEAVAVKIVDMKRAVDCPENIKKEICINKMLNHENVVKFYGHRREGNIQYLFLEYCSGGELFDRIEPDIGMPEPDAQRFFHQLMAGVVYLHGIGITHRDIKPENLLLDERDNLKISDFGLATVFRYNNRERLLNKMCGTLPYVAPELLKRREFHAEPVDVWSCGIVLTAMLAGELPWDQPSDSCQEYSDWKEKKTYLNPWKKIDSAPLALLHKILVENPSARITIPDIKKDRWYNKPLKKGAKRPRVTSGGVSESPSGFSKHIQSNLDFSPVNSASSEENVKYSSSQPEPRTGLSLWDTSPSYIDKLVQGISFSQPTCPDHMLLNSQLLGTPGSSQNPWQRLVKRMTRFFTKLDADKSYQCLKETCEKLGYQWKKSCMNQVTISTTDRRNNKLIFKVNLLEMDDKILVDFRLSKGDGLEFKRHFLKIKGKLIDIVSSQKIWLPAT
Method: The effect of compounds on Chk1 biochemical activity can be determined using a CHK1/substrate peptide filter binding assay. In this assay, a synthetic peptide based on the amino acid sequence residues 206-225 of Cdc25, is used as a phospho-acceptor substrate for recombinant Chk1 protein kinase. Using γ-^33P-ATP as the phospho-donor substrate, Chk1 transfers the radioactive γ-^33phosphate group to the synthetic peptide. The reaction is measured by capturing the peptide substrate on a cation exchange paper filter plate and scintillation counting of emitted beta particles.
The kinase reactions (40 μL reaction volumes) are performed in 96-well V-bottom polystyrene plates. Reactions are initiated with the addition of Chk1 enzyme. […]
Following Chk1 enzyme addition, the reactions are incubated at room temperature for 90 min, and then terminated with the addition of 140 μL of phosphoric acid. […] After sitting for 4 h at room temperature, the radioactivity in the plate is measured using a MicroBeta Trilux microplate scintillation counter (Perkin Elmer).
For IC50 determination, the percent inhibition for each concentration is calculated using the scintillation count ratio from controls run on each plate. […] Absolute IC50 values are calculated from the resulting curve. […]

[2] = molecular target: T1, Chk1; test: Chk1 in vivo target inhibition assay (Calu-6 xenograft, phospho-Chk1 ser296); set-up: from tissue; host or cells: Calu-6 xenograft tumour from nude mice; species or system nude mice; conditions: Calu-6 tumors, oral, 6 h after gemcitabine 150 mg/kg ip, 2 h post dose
Method: Calu-6 cells are cultured in growth media (MEM with Earle's Balanced Salt Solution with L-glutamine supplemented with […], 1×MEM non-essential amino acids, 1× sodium pyruvate) and expanded. Cells are harvested and washed twice with phosphate buffered saline and 1×10^6 cells in growth media (without serum) are mixed with equal volume of BD Matrigel™ matrix, then injected subcutaneously into the flank of pre-irradiated (4.5 Gy) nude mice (athymic nude). At day 15 after implant (tumor size=150-200 mm^3), gemcitabine formulated fresh in saline daily is administered to animals by intraperitoneal route at 150 mg/kg dose. […] Antigen-antibody-reporter conjugates immobilized on the membrane are detected with the Super Signal Western Femto HRP-detection reagent.
Signals are detected and captured using the FUJI LAS-4000 imaging system. Phospho-Chk1(ser296) band intensities are calculated using “Total Lab” software (Nonlinear Dynamics). The percent inhibition of the gemcitabine induced Chk1 autophosphorylation is calculated by using the following formula: % inhibition=(sample-phospho-Chk1 band—intensity average gemcitabine (Max) positive control-phospho-Chk1 band intensity)/(average negative control (Min)-phosphor-Chk1 band intensity—average gemcitabine (Max) positive control-phospho-Chk1 band intensity)×100.

| IC50 [1] [nM] | Target Modulatory Effective Dose 50 (TMED50) for Chk1 autophosphorylation [2] [mg/kg] | Structure (SMILES) |
| --- | --- | --- |
| < 1 |  | COc1nc(C)ccc1-c1cc(Nc2cncc(O[C@@H]3CCCNC3)n2)[nH]n1 [Example 1, (R)-[5-(2-Methoxy-6-methyl-pyridin-3-yl)-2H-pyrazol-3-yl]-[6-(piperidin-3-yloxy)-pyrazin-2-yl]-amine] |
|  | 1.3 | COc1nc(C)ccc1-c1cc(Nc2cncc(O[C@@H]3CCCNC3)n2)[nH]n1 [Example 3, (R)-[5-(2-Methoxy-6-methyl-pyridin-3-yl)-2H-pyrazol-3-yl]-[6-(piperidin-3-yloxy)-pyrazin-2-yl]-amine acetic acid salt] |
